US9296704B2, “Substituted pyrimidines as protein kinase inhibitors” (CELGENE AVILOMICS RESEARCH, INC., priority 2007, dated 2016)

How the values were obtained:
EGFR wild type = target: T1, EGFR wild type (Homo sapiens, UniProt P00533); assay: Mass spectrometry for EGFR wild type (covalent modification); format: binding; settings: 10-fold excess of compound, 1 hr and 3 hrs, MALDI
T1 construct: Amino acids 696 to 1022 of the EGFR-WT kinase domain; six-histidine tag (TEV-cleavable) (C); made in house; host or cells: SF21 insect cells (baculovirus; P1 stocks in SF9)
Procedure: Amino acids 696 to 1022 of the EGFR-WT kinase domain (NM_005228, NP_005219.2) was subcloned into the NcoI and HindIII sites of the pFastHTa vector (Invitrogen, Carlsbad, Calif.). To make the EGFR-mutant protein, the cysteine at position 797 was changed to a serine using the Stratagene QuikChange kit (Stratagene, Cedar Creek, Tex.), according to manufacturer's instructions.
EGFR wild type and EGFR mutant (C797S) was incubated with 10-fold excess of compound I-1 for 1 hr and 3 hrs. 1 ul aliquots of the samples (total volume 5-8 ul) were diluted with 10 ul of 0.1% TFA prior to micro C4 ZipTipping directly onto the MALDI target using Sinapinic acid as the desorption matrix (10 mg/ml in 0.1% TFA:Acetonitrile 50:50). […] (See FIG. 8).

TEC kinase = target: T2, TEC kinase (Homo sapiens, UniProt P42680); assay: Mass spectrometry for TEC kinase (tryptic digest); format: binding, homo sapien; settings: 10× excess, 3 hrs, MALDI
T2 construct: purchased Invitrogen
T2 sequence (P42680 1-631): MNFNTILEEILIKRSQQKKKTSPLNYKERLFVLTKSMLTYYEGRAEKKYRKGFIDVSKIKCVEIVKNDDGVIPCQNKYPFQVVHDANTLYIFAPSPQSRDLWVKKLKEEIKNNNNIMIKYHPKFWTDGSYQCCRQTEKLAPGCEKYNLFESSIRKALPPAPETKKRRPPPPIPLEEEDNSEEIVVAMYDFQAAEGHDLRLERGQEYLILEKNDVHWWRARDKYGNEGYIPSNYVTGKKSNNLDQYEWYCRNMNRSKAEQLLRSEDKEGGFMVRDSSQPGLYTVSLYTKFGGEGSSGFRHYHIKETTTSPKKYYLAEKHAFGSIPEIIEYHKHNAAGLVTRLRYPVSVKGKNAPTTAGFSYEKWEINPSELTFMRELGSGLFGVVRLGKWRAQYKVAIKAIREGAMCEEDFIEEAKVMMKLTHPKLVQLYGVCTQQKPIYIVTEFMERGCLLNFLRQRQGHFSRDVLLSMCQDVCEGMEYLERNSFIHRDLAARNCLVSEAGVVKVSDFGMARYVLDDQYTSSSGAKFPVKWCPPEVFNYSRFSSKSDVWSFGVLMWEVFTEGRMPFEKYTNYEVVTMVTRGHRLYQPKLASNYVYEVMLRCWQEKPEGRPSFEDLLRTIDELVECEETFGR
Procedure: TEC kinase (45 pmols; Invitrogen) was incubated with (I-13) (450 pmols) for 3 hrs at 10× access prior to tryptic digestion. Iodoacetamide was used as the alkylating agent after compound incubation. […] For tryptic digests a 5 ul aliquot (7.5 pmols) was diluted with 15 ul of 0.1% TFA prior to micro C18 Zip Tipping directly onto the MALDI target using alpha cyano-4-hydroxy cinnamic acid as the matrix (5 mg/ml in 0.1% TFA:Acetonitrile 50:50).
As depicted in FIG. 11, the expected peptide (GCLLNFLR) to be modified was immediately evident at MH+ of 1358.65. This is the mass to be expected when compound I-13, with an adduct mass of 423.17, is added to the peptide mass of 935.51. The peptide was also quite evident in the control sample as modified by Iodacetamide at MH+ of 992.56. […] There was no evidence of any other modified peptides.
To further verify the presence of the modified peptide with compound I-13, the peptide at MH+ of 1358.65 was subjected to PSD (MS/MS) analysis. A correlational analysis with the homo sapien database identified the correct peptide modified by I-13.
For tryptic digests the instrument was set in Reflectron mode with a pulsed extraction setting of 2200. Calibration was done using the Laser Biolabs Pep Mix standard (1046.54, 1296.69, 1672.92, 2093.09, 2465.20). […]

T1 sequence (P00533 696-1022): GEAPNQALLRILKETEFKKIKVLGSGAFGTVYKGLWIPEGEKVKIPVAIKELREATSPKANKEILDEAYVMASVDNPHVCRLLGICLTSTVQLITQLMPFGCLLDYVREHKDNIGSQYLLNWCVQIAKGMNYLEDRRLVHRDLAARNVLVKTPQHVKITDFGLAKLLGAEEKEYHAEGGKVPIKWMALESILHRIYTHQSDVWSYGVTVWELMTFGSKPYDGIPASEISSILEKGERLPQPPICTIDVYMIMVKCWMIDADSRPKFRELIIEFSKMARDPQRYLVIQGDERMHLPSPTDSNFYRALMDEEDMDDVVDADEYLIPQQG

Row | Compound | reactivity with EGFR wild type by intact mass (EGFR wild type) | modification of TEC peptide GCLLNFLR in tryptic digest (TEC kinase)
1 | C=CC(=O)Nc1cccc(Nc2cc(Nc3cccc(Br)c3)ncn2)c1 [I-1, N-{3-[6-(3-bromophenylamino)-pyrimidin-4-ylamino]-phenyl}-2-propenamide] | single site covalent modification | 
2 | C=CC(=O)Nc1cccc(Nc2cc(Nc3ccc(Oc4ccccc4)cc3)ncn2)c1 [I-13, N-{3-[6-(4-phenoxyphenylamino)-pyrimidin-4-ylamino]phenyl}-2 propenamide] |  | reaction was complete
